Laboratory results taken from publication PMC7180948, “New Insights into 4-Anilinoquinazolines as Inhibitors of Cardiac Troponin I–Interacting Kinase (TNNi3K)” (Molecules, 2020).

Key:
Assay in all cases: biochemical
Set-up in all cases: KINOMEscan competition binding panel (Eurofins DiscoverX), single concentration, percent inhibition
Details in all cases: read-out: 15 at 1 µM % inhibition
DYRK2 = DYRK2 (Homo sapiens, UniProt Q92630)
Summary of the method: (§1)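 KINOMEscan selectivity screen; >400 human kinases; compound at 1 µM, single concentration.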

NIM1 = target: T1, NIM1 (Homo sapiens, UniProt Q8IY84)
T1 construct: gene NIM1K
Summary of the method: as §1

EGFR(L861Q) = EGFR(L861Q) (Homo sapiens, UniProt P00533, L861Q)
Summary of the method: as §1

EPHA5 = EPHA5 (Homo sapiens, UniProt P54756)
Summary of the method: as §1

MAK = MAK (Homo sapiens, UniProt P20794)
Summary of the method: as §1

MET(Y1235D) = MET(Y1235D) (Homo sapiens, UniProt P08581, Y1235D)
Summary of the method: as §1

BMPR1A = BMPR1A (Homo sapiens, UniProt P36894)
Summary of the method: as §1

RET(V804L) = RET(V804L) (Homo sapiens, UniProt P07949, V804L)
Summary of the method: as §1

MINK = target: T2, MINK (Homo sapiens, UniProt Q8N4C8)
T2 construct: gene MINK1
Summary of the method: as §1

TYRO3 = TYRO3 (Homo sapiens, UniProt Q06418)
Summary of the method: as §1

[1] = target: T3, JAK1(JH1domain-catalytic) (Homo sapiens, UniProt P23458)
T3 construct: JH1domain-catalytic
Summary of the method: as §1

SGK3 = SGK3 (Homo sapiens, UniProt Q96BR1)
Summary of the method: as §1

CASK = CASK (Homo sapiens, UniProt O14936)
Summary of the method: as §1

PRKCE = PRKCE (Homo sapiens, UniProt Q02156)
Summary of the method: as §1

p38-alpha = target: T4, p38-alpha (Homo sapiens, UniProt Q16539)
T4 construct: gene MAPK14
Summary of the method: as §1

CLK1 = CLK1 (Homo sapiens, UniProt P49759)
Summary of the method: as §1

SBK1 = SBK1 (Homo sapiens, UniProt Q52WX2)
Summary of the method: as §1

MAP3K4 = MAP3K4 (Homo sapiens, UniProt Q9Y6R4)
Summary of the method: as §1

EGFR(L858R) = EGFR(L858R) (Homo sapiens, UniProt P00533, L858R)
Summary of the method: as §1

PIK3CA(H1047Y) = PIK3CA(H1047Y) (Homo sapiens, UniProt P42336, H1047Y)
Summary of the method: as §1

MTOR = MTOR (Homo sapiens, UniProt P42345)
Summary of the method: as §1

FLT3(ITD) = FLT3(ITD) (Homo sapiens, UniProt P36888, ITD)
Summary of the method: as §1

LATS1 = LATS1 (Homo sapiens, UniProt O95835)
Summary of the method: as §1

LZK = target: T5, LZK (Homo sapiens, UniProt O43283)
T5 construct: gene MAP3K13
Summary of the method: as §1

Sequence of PRKCE (Q02156 whole entry): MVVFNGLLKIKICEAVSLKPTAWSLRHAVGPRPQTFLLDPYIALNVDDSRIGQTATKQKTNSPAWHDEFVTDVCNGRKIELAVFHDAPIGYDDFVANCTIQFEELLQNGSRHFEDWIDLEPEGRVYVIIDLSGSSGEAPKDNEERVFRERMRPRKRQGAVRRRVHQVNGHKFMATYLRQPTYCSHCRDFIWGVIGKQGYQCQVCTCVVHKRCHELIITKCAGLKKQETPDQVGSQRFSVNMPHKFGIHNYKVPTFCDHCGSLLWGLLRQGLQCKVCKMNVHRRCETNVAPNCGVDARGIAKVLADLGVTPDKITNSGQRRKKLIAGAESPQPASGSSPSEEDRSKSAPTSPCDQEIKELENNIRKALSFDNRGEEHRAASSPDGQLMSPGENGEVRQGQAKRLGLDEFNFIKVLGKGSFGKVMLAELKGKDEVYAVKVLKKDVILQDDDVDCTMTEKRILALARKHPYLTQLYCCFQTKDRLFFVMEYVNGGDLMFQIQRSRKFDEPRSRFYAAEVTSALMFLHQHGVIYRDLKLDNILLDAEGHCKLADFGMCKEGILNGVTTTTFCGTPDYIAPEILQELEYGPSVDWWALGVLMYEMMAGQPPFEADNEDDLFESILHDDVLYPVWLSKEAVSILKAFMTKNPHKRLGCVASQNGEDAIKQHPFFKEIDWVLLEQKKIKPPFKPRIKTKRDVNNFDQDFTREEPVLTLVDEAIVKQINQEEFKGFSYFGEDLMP
Sequence of CLK1 (P49759 whole entry): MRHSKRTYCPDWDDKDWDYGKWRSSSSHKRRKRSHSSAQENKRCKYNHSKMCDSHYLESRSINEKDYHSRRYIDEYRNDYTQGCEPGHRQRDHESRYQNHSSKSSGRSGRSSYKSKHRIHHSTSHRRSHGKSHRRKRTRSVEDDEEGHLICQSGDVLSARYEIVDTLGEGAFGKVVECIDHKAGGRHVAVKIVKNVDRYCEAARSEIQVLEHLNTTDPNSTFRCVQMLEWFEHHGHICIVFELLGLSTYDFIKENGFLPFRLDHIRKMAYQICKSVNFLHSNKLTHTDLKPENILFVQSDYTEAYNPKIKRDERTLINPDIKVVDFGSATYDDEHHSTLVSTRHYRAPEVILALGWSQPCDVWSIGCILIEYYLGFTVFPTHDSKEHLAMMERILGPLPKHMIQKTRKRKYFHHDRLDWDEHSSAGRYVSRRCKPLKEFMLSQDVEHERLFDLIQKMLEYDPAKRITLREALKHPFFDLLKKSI
Sequence of EPHA5 (P54756 whole entry): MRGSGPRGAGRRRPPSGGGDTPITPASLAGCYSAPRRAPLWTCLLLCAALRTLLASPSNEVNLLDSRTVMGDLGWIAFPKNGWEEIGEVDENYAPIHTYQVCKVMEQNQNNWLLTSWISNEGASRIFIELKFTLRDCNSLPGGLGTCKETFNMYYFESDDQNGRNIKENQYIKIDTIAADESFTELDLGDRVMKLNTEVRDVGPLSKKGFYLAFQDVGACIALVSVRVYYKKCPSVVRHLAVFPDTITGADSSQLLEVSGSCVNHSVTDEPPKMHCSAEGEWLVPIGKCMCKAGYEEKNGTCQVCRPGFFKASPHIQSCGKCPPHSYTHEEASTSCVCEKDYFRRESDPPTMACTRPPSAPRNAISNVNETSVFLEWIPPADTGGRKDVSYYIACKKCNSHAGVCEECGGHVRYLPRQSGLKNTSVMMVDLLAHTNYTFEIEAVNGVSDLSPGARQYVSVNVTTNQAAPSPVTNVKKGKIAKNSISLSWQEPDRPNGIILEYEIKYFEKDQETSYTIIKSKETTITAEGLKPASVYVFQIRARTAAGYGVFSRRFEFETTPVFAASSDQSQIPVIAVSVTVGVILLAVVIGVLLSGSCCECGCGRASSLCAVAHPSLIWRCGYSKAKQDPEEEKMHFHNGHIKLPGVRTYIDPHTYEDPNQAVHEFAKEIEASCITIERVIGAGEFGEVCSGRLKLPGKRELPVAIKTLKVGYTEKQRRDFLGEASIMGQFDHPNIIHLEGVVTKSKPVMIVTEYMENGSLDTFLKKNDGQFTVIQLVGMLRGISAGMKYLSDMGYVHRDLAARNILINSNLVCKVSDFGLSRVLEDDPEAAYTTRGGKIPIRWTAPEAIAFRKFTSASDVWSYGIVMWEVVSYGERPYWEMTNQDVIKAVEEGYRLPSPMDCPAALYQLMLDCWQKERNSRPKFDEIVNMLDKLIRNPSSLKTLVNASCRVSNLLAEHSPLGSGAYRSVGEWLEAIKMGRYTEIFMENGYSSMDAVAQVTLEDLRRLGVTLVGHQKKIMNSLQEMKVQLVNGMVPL
Sequence of MET(Y1235D) (P08581 whole entry Y1235D): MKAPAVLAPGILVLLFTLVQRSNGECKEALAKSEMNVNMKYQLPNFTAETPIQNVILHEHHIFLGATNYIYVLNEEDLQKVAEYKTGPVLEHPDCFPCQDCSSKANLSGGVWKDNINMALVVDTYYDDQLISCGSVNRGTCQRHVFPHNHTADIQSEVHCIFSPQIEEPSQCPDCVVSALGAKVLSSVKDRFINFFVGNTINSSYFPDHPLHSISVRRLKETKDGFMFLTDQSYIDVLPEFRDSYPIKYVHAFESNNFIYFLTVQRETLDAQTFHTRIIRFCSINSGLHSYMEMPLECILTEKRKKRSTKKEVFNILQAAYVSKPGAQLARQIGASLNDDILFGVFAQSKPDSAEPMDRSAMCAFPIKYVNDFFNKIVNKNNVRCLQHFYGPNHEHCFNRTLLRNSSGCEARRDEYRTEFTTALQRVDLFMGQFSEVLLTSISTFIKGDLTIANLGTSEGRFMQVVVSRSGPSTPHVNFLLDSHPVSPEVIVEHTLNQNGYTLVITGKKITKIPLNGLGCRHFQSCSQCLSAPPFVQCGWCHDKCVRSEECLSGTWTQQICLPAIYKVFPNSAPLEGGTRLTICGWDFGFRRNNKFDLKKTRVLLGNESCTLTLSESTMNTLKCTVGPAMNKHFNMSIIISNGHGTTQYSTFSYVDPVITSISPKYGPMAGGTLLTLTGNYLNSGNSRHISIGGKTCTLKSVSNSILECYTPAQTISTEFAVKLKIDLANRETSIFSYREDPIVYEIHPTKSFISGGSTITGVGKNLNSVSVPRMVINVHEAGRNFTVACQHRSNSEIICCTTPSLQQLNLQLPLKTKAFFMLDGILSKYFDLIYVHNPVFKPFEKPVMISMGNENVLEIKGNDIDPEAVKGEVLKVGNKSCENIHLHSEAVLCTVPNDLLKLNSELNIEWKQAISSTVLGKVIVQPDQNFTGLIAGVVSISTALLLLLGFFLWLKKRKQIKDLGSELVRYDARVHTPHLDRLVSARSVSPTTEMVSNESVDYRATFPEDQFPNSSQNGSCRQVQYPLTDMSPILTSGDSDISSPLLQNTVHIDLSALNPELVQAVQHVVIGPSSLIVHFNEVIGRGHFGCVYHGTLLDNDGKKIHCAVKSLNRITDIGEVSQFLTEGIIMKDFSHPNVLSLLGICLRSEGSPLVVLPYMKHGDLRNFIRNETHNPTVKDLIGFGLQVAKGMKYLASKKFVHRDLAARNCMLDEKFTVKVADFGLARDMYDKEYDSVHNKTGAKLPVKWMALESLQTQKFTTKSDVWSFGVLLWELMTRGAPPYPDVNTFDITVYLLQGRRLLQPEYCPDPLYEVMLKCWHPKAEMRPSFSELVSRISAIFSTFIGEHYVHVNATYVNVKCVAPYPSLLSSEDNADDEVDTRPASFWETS
Sequence of BMPR1A (P36894 whole entry): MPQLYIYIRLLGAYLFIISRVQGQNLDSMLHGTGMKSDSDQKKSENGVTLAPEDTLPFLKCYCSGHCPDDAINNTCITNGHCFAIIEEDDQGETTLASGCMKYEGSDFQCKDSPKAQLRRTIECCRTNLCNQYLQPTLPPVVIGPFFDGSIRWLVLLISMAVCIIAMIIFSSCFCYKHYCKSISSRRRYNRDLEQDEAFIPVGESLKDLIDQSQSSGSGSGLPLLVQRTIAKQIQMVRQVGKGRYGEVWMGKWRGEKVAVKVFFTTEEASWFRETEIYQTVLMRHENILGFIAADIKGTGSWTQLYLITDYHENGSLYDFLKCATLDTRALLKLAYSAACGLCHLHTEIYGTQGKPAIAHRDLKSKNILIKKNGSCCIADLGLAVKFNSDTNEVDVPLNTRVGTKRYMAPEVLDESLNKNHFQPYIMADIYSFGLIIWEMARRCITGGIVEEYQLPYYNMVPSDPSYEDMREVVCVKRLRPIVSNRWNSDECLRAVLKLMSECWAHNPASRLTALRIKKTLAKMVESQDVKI
Sequence of SGK3 (Q96BR1 whole entry): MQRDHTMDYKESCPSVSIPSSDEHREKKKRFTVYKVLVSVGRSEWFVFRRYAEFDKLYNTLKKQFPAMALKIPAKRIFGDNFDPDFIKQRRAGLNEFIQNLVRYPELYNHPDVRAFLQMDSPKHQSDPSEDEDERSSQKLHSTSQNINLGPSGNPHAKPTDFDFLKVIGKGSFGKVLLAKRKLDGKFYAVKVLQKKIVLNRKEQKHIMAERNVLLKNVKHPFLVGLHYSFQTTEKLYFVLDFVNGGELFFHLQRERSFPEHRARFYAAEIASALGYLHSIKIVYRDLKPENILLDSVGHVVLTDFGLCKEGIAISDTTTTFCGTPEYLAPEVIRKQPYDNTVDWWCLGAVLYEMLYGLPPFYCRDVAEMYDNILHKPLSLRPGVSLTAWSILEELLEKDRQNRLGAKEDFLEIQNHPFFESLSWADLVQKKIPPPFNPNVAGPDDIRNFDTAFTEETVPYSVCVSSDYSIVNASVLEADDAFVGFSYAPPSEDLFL
T4 sequence (Q16539 whole entry): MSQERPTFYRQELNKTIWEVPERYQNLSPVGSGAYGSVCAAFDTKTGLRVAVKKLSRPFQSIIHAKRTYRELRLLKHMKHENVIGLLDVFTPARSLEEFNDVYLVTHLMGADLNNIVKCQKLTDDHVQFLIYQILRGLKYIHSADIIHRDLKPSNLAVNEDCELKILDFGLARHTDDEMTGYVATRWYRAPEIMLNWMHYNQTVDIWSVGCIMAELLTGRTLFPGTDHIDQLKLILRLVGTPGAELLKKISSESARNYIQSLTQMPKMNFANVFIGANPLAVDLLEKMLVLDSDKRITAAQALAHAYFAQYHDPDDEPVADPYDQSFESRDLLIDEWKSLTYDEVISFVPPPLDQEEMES

CNS(=O)(=O)c1ccc(N(C)C)c(Nc2nc(C)nc3cc(OC)c(OC)cc23)c1 [compound 15, 3-((6,7-dimethoxy-2-methylquinazolin-4-yl)amino)-4-(dimethylamino)-N-methylbenzenesulfonamide]
inhibition at 1 µM (DYRK2): 0%
inhibition at 1 µM (NIM1): 27%
inhibition at 1 µM (EGFR(L861Q)): 0%
inhibition at 1 µM (EPHA5): 0%
inhibition at 1 µM (MAK): 8%
inhibition at 1 µM (MET(Y1235D)): 0%
inhibition at 1 µM (BMPR1A): 0%
inhibition at 1 µM (RET(V804L)): 0%
inhibition at 1 µM (MINK): 22%
inhibition at 1 µM (TYRO3): 0%
inhibition at 1 µM [1]: 0%
inhibition at 1 µM (SGK3): 19%
inhibition at 1 µM (CASK): 26%
inhibition at 1 µM (PRKCE): 11%
inhibition at 1 µM (p38-alpha): 0%
inhibition at 1 µM (CLK1): 0%
inhibition at 1 µM (SBK1): 44%
inhibition at 1 µM (MAP3K4): 0%
inhibition at 1 µM (EGFR(L858R)): 4%
inhibition at 1 µM (PIK3CA(H1047Y)): 21%
inhibition at 1 µM (MTOR): 0%
inhibition at 1 µM (FLT3(ITD)): 0%
inhibition at 1 µM (LATS1): 14%
inhibition at 1 µM (LZK): 16%
